Experimental data published in patent US20070248646A1, “Use of azurocidin inhibitors in prevention and treatment of ocular vascular leakage” (priority 2006, published 2007).

Experiments:
[1] = tested on: VEGF-induced blood retinal barrier breakdown; assay: VEGF-induced blood retinal barrier breakdown (Evans Blue); assay type: in vivo, Brown Norway rats
Experimental: This study employed Brown Norway rats, AZ (1 μg, 10 μg, 20 μg), PBS, aprotinin, VEGF164, and polyclonal anti-AZ antibody (1 μg). Briefly, Brown Norway rats received intravitreal injections of AZ (1 μg, 10 μg and 20 μg) in one eye and PBS in the contralateral eye. BRB breakdown was quantified using the Evans Blue (EB) technique at 1 hour, 3 hours, and 24 hours after intravitreal injection of AZ or PBS. To assess whether AZ induced retinal leukostasis, firm leukocyte adhesion was quantified at 3 hours and 24 hours post AZ injection (10 μg) using the ex vivo conconavalin leukostasis assay. To block AZ, rats were treated with a single intravenous injection of aprotinin (30,000KIU), prior to the intravitreal injections. To investigate whether AZ was involved in VEGF-induced BRB breakdown, rats received intravitreal injections of 50 ng recombinant mouse VEGF164 in one eye and PBS in the other eye and were treated intravenously with aprotinin (50,000KIU every eight hours) or polyclonal anti-AZ antibody (1 μg). BRB breakdown and retinal leukostasis were quantified 24 hours after VEGF injection.
Rats received intravitreous injections of 5 μl of sterile phosphate-buffered saline (PBS) containing 50 ng VEGF164 (R&D Systems, Minneapolis, Minn.) in one eye and 5 μl of sterile phosphate-buffered saline (PBS) in the contralateral eye. The retinas were analyzed for leakage 24 hours after VEGF injection.
In a second group, the rats were additionally treated intravenously with aprotinin (Trasylol®, Bayer Pharmaceuticals). 50,000KIU of aprotinin (5 ml of Trasylol®) was administered intravenously through the tail vein 1 hour before, as well as 8 hours and 16 hours after, the intravitreal injection of VEGF. The retinas were analyzed 24 hours after VEGF administration.
In a third group, rats were treated with intravitreous injections of 1 μg of goat anti-human azurocidin polyclonal antibody (5 μl of a 200 μg/ml antibody solution, Santa Cruz biotechnology) or control goat isotype IgG (R&D system) in the VEGF injected eye 6 hours after VEGF administration.
Retinal vascular permeability was quantified as previously described (Qaum et al. (2002) supra, Xu et al. (2001) INVEST. OPHTHALMOL. VIS. SCI. 42; 789-94). After the animals were deeply anesthetized, Evans blue dye (Sigma) dissolved in normal saline (30 mg/ml) was injected through the tail vein over 10 seconds at a dosage of 45 mg/kg. Blood samples were obtained from the left ventricle, just before perfusion at 2 hours, to obtain the time-average Evans blue dye plasma concentration. These blood samples were centrifuged at 12,000 rpm for 15 minutes and diluted to 1/10,000th of their initial concentration in formamide (Sigma). The background-subtracted absorbance was determined by measuring each sample at 620 nm (the absorbance maximum for Evans blue dye in formamide) and 740 nm (the absorbance minimum) with a spectrophotometer. The concentration of dye in the plasma was calculated from a standard curve of Evans blue dye in formamide. After the dye had circulated for 2 hours, the chest cavity was opened, and the rats were perfused through the left ventricle with 1% paraformaldehyde in citrate buffer (0.05 M, pH 3.5) at a physiological pressure of 120 mm Hg. The retinas were then carefully dissected under an operating microscope. After measurement of the retinal weight, Evans blue dye was extracted by incubating each retina in 0.180 ml of formamide for 18 hours at 70° C. The extract was ultracentrifuged at a speed of 14,000 rpm for 60 minutes at 25° C. Sixty microliters of the supernatant was used for spectrophotometric measurement at 620 nm and 740 nm. The background-subtracted absorbance was determined by measuring each sample at 620 nm (the absorbance maximum for Evans blue dye in formamide) and 740 nm (the absorbance minimum). The concentration of dye in the extracts was calculated from a standard curve of Evans blue dye in formamide. […]

[2] = tested on: retinal vascular leakage in diabetic retinopathy; assay: Retinal vascular leakage in streptozotocin-induced diabetic retinopathy; assay type: in vivo, Long-Evans rats; details: two weeks after streptozotocin-induced diabetes; aprotinin 50,000 KIU, systemic
Experimental: After an overnight fast, Long-Evans rats (Charles River, Wilmington, Mass.), weighing 200-250 g, received single 60 mg/kg intraperitoneal injections of streptozotocin (Sigma, St. Louis, Mo.) in 10 mM citrate buffer (pH 4.5). Control nondiabetic animals received citrate buffer alone. Animals with blood glucose levels greater than 250 mg/dl 24 hours after the streptozotocin injections were considered diabetic. The rats were fed standard laboratory chow and allowed free access to water. Before each experiment, the diabetic state was reconfirmed to be 250 mg/dl or higher.
Asterisks indicate statistical significance.

In the case of aprotinin, the “BRB breakdown as percentage of the value in control eyes” value ([1]; 24 hours after intravitreal 50 ng VEGF) is reported as 110%±21, the “Evans Blue retinal leakage in VEGF-injected eye” value ([1]; 24 hours after intravitreal 50 ng VEGF, PBS eye 9.6±1.4 (VEGF alone), 5.4±1.4 (with aprotinin)) is reported as 6.2±1.5 μl plasma/g retina/h and the “fold increase in retinal vascular leakage compared to the PBS injected eye” value ([1]; 24 hours after intravitreal 50 ng VEGF, aprotinin i.v. 50,000KIU every eight hours, antibody 1 μg intravitreal 6 hours after VEGF) is reported as 1.1±0.21 fold. The “suppression of VEGF-induced blood retinal barrier breakdown” value ([1]; 24 hours after intravitreal 50 ng VEGF, aprotinin i.v., antibody intravitreal 6 hours after VEGF) was 95%, the “basal levels of retinal Evans Blue leakage” value ([1]; PBS-injected eye, i.v. aprotinin) was “did not reduce the basal levels of retinal Evans Blue leakage” and the “vascular leakage (normalized BRB leakage)” value [2] was “comparable to that of normal animals”.
